Values after ≈ are worked out from the molar mass of the structure shown.
Experiments:
Bacillus subtilis = experiment: Antibacterial activity against Bacillus subtilis MTCC 441 incubated for 24 hrs by microdilution method; assay type: functional
[1] = tested on: Staphylococcus epidermidis; experiment: Antibacterial activity against Staphylococcus epidermidis incubated for 24 hrs by microdilution method; assay type: functional
Pseudomonas aeruginosa [2] = experiment: Antibacterial activity against Pseudomonas aeruginosa MTCC 741 incubated for 24 hrs by microdilution method; assay type: functional
Escherichia coli [3] = experiment: Antibacterial activity against Escherichia coli MTCC 443 incubated for 24 hrs by microdilution method; assay type: functional
Klebsiella pneumoniae [4] = experiment: Antibacterial activity against Klebsiella pneumoniae MTCC 618 incubated for 24 hrs by microdilution method; assay type: functional
Staphylococcus aureus [5] = experiment: Antibacterial activity against Staphylococcus aureus MTCC 96 incubated for 24 hrs by microdilution method; assay type: functional
Staphylococcus aureus [6] = experiment: Antibacterial activity against methicillin-resistant Staphylococcus aureus ATCC 33591; assay type: functional
Enterococcus faecium [7] = experiment: Antibacterial activity against Enterococcus faecium 13-7; assay type: functional
Citrobacter freundii = experiment: Antibacterial activity against Citrobacter freundii ATCC 43864; assay type: functional
Staphylococcus aureus [8] = experiment: Antibacterial activity against methicillin-sensitive Staphylococcus aureus ATCC 29213; assay type: functional
Enterococcus faecalis [9] = experiment: Antibacterial activity against Enterococcus faecalis ATCC 51299; assay type: functional
[10] = tested on: Acinetobacter calcoaceticus; experiment: Antibacterial activity against Acinetobacter calcoaceticus ATCC 19606; assay type: functional
[11] = tested on: Staphylococcus epidermidis; experiment: Antibacterial activity against methicillin-resistant Staphylococcus epidermidis 13-3; assay type: functional
Klebsiella aerogenes = experiment: Antibacterial activity against Enterobacter aerogenes ATCC 13048; assay type: functional
Pseudomonas aeruginosa [12] = experiment: Antibacterial activity against Pseudomonas aeruginosa ATCC 27853; assay type: functional
Escherichia coli [13] = experiment: Antibacterial activity against Escherichia coli ATCC 25922 after overnight incubation by CLSI M7-A9 based method; assay type: functional
Proteus mirabilis = experiment: Antibacterial activity against Proteus mirabilis 13-1; assay type: functional
Serratia marcescens = experiment: Antibacterial activity against Serratia marcescens ATCC 21074; assay type: functional
Escherichia coli [14] = experiment: Antibacterial activity against Escherichia coli 14-11; assay type: functional
Enterococcus faecalis [15] = experiment: Antibacterial activity against Enterococcus faecalis ATCC 29212 after overnight incubation by CLSI M7-A9 based method; assay type: functional
Morganella morganii = experiment: Antibacterial activity against Morganella morganii ATCC 25830; assay type: functional
Proteus vulgaris [16] = experiment: Antibacterial activity against Proteus vulgaris ATCC 29905; assay type: functional
Enterobacter cloacae = experiment: Antibacterial activity against Enterobacter cloacae ATCC 43560; assay type: functional
[17] = tested on: Stenotrophomonas maltophilia; experiment: Antibacterial activity against Stenotrophomonas maltophilia ATCC 13636; assay type: functional
Klebsiella pneumoniae [18] = experiment: Antibacterial activity against Klebsiella pneumoniae ATCC 700603; assay type: functional
[19] = tested on: Staphylococcus epidermidis; experiment: Antibacterial activity against methicillin-sensitive Staphylococcus epidermidis ATCC 12228; assay type: functional
Providencia rettgeri = experiment: Antibacterial activity against Providencia rettgeri ATCC 31052; assay type: functional
Enterococcus faecium [20] = experiment: Antibacterial activity against Enterococcus faecium ATCC 700221; assay type: functional
Klebsiella pneumoniae [21] = experiment: Antibacterial activity against Klebsiella pneumoniae 7; assay type: functional
Candida albicans = experiment: Antifungal activity against Candida albicans RCMB-05036 assessed as diameter of inhibition zone at 5 mg/ml by diffusion technique; assay type: functional; conditions: read-out: DIZ
Pseudomonas aeruginosa [22] = experiment: Antibacterial activity against Pseudomonas aeruginosa RCMB-010043 assessed as diameter of inhibition zone at 5 mg/ml by diffusion technique; assay type: functional; conditions: read-out: DIZ
Escherichia coli [23] = experiment: Antibacterial activity against Escherichia coli RCMB-010052 assessed as diameter of inhibition zone at 5 mg/ml by diffusion technique; assay type: functional; conditions: read-out: DIZ
Aspergillus fumigatus = experiment: Antifungal activity against Aspergillus fumigatus RCMB-02568 assessed as diameter of inhibition zone at 5 mg/ml by diffusion technique; assay type: functional; conditions: read-out: DIZ
[24] = tested on: Syncephalastrum racemosum; experiment: Antifungal activity against Syncephalastrum racemosum RCMB-05922 assessed as diameter of inhibition zone at 5 mg/ml by diffusion technique; assay type: functional; conditions: read-out: DIZ
HepG2 = experiment: Anticancer activity against human HepG2 cells by MTT assay; assay type: functional, cell-based
Geotrichum candidum = experiment: Antifungal activity against Geotrichum candidum RCMB-05097 assessed as diameter of inhibition zone at 5 mg/ml by diffusion technique; assay type: functional; conditions: read-out: DIZ
Staphylococcus aureus [25] = experiment: Antibacterial activity against Staphylococcus aureus RCMB-010010 assessed as diameter of inhibition zone at 5 mg/ml by diffusion technique; assay type: functional; conditions: read-out: DIZ
Bacillus cereus = experiment: Antibacterial activity against Bacillus cereus RCMB-010067 assessed as diameter of inhibition zone at 5 mg/ml by diffusion technique; assay type: functional; conditions: read-out: DIZ
Bacillus spizizenii = experiment: Antibacterial activity against Bacillus subtilis ATCC 6633 assessed as inhibition zone; assay type: functional
Staphylococcus aureus [26] = experiment: Antibacterial activity against Staphylococcus aureus ATCC 25923 assessed as inhibition zone; assay type: functional
Escherichia coli [27] = experiment: Antibacterial activity against Escherichia coli ATCC 25922 assessed as inhibition zone; assay type: functional
Proteus vulgaris [28] = experiment: Antibacterial activity against Proteus vulgaris ATCC 4636 assessed as inhibition zone; assay type: functional
Pseudomonas aeruginosa [29] = experiment: Antibacterial activity against Pseudomonas aeruginosa ATCC 27853 assessed as inhibition zone; assay type: functional

O=C(c1cn(Cc2cn(-c3ccc(C(F)(F)F)cc3)nn2)c2cc(N3CCOCC3)c(F)cc2c1=O)N1CCOCC1
MIC (Bacillus subtilis): 18.8 µg/mL (≈ 32 µM)
MIC [1]: 18.8 µg/mL (≈ 32 µM)
MIC (Pseudomonas aeruginosa [2]): 18.8 µg/mL (≈ 32 µM)
MIC (Escherichia coli [3]): 18.8 µg/mL (≈ 32 µM)
MIC (Klebsiella pneumoniae [4]): 18.8 µg/mL (≈ 32 µM)
MIC (Staphylococcus aureus [5]): 18.8 µg/mL (≈ 32 µM)

C[C@H]1COc2c(N3CCN(C)CC3)c(F)cc3c(=O)c(C(=O)O)cn1c23.C[C@H]1COc2c(N3CCN(C)CC3)c(F)cc3c(=O)c(C(=O)O)cn1c23.O [LEVOFLOXACIN]
MIC (Staphylococcus aureus [6]): ≤ 0.03 µg/mL
MIC (Enterococcus faecium [7]): ≤ 0.03 µg/mL
MIC (Citrobacter freundii): ≤ 0.03 µg/mL
MIC (Staphylococcus aureus [8]): ≤ 0.03 µg/mL
MIC (Enterococcus faecalis [9]): ≤ 0.03 µg/mL
MIC [10]: ≤ 0.03 µg/mL
MIC [11]: ≤ 0.03 µg/mL
MIC (Klebsiella aerogenes): ≤ 0.03 µg/mL
MIC (Pseudomonas aeruginosa [12]): ≤ 0.03 µg/mL
MIC (Escherichia coli [13]): ≤ 0.03 µg/mL
MIC (Proteus mirabilis): ≤ 0.03 µg/mL
MIC (Serratia marcescens): ≤ 0.03 µg/mL
MIC (Escherichia coli [14]): ≤ 0.03 µg/mL
MIC (Enterococcus faecalis [15]): ≤ 0.03 µg/mL
MIC (Morganella morganii): ≤ 0.03 µg/mL
MIC (Proteus vulgaris [16]): ≤ 0.03 µg/mL
MIC (Enterobacter cloacae): ≤ 0.03 µg/mL
MIC [17]: ≤ 0.03 µg/mL
MIC (Klebsiella pneumoniae [18]): ≤ 0.03 µg/mL
MIC [19]: ≤ 0.03 µg/mL
MIC (Providencia rettgeri): ≤ 0.03 µg/mL
MIC (Enterococcus faecium [20]): ≤ 0.03 µg/mL
MIC (Klebsiella pneumoniae [21]): ≤ 0.03 µg/mL

COC(=O)c1ccc(-n2nc(N)c(C(=O)NCCNC(=O)c3nn(-c4ccc(C(=O)OC)cc4)nc3N)n2)cc1
zone of inhibition at 5000 µg/mL (Candida albicans): 20.4 mm
zone of inhibition at 5000 µg/mL (Pseudomonas aeruginosa [22]): 20.4 mm
zone of inhibition at 5000 µg/mL (Escherichia coli [23]): 20.4 mm
zone of inhibition at 5000 µg/mL (Aspergillus fumigatus): 20.4 mm
zone of inhibition at 5000 µg/mL [24]: 20.4 mm
IC50 (HepG2): 11.6 µg/mL (≈ 21.1 µM)
zone of inhibition at 5000 µg/mL (Geotrichum candidum): 20.4 mm
zone of inhibition at 5000 µg/mL (Staphylococcus aureus [25]): 20.4 mm
zone of inhibition at 5000 µg/mL (Bacillus cereus): 20.4 mm

COc1c(N2CCN(CCn3ccnn3)CC2)c(F)cc2c(=O)c(C(=O)O)cn(C3CC3)c12
MIC (Staphylococcus aureus [6]): ≥ 0.5 µg/mL
MIC (Enterococcus faecium [7]): ≥ 0.5 µg/mL
MIC (Citrobacter freundii): ≥ 0.5 µg/mL
MIC (Staphylococcus aureus [8]): ≥ 0.5 µg/mL
MIC (Enterococcus faecalis [9]): ≥ 0.5 µg/mL
MIC [10]: ≥ 0.5 µg/mL
MIC [11]: ≥ 0.5 µg/mL
MIC (Klebsiella aerogenes): ≥ 0.5 µg/mL
MIC (Pseudomonas aeruginosa [12]): ≥ 0.5 µg/mL
MIC (Escherichia coli [13]): ≥ 0.5 µg/mL
MIC (Proteus mirabilis): ≥ 0.5 µg/mL
MIC (Serratia marcescens): ≥ 0.5 µg/mL
MIC (Escherichia coli [14]): ≥ 0.5 µg/mL
MIC (Enterococcus faecalis [15]): ≥ 0.5 µg/mL
MIC (Morganella morganii): ≥ 0.5 µg/mL
MIC (Proteus vulgaris [16]): ≥ 0.5 µg/mL
MIC (Enterobacter cloacae): ≥ 0.5 µg/mL
MIC [17]: ≥ 0.5 µg/mL
MIC (Klebsiella pneumoniae [18]): ≥ 0.5 µg/mL
MIC [19]: ≥ 0.5 µg/mL
MIC (Providencia rettgeri): ≥ 0.5 µg/mL
MIC (Enterococcus faecium [20]): ≥ 0.5 µg/mL
MIC (Klebsiella pneumoniae [21]): ≥ 0.5 µg/mL

Cc1ccc(-n2nc(N)c(C(=O)NCCNC(=O)c3nn(-c4ccc(C)cc4)nc3N)n2)cc1
zone of inhibition at 5000 µg/mL (Candida albicans): 8.3 mm
zone of inhibition at 5000 µg/mL (Pseudomonas aeruginosa [22]): 8.3 mm
zone of inhibition at 5000 µg/mL (Escherichia coli [23]): 8.3 mm
zone of inhibition at 5000 µg/mL (Aspergillus fumigatus): 8.3 mm
zone of inhibition at 5000 µg/mL [24]: 8.3 mm
zone of inhibition at 5000 µg/mL (Geotrichum candidum): 8.3 mm
zone of inhibition at 5000 µg/mL (Staphylococcus aureus [25]): 8.3 mm
zone of inhibition at 5000 µg/mL (Bacillus cereus): 8.3 mm

CC[C@]1(O)C[C@@H]2CN(CCc3c([nH]c4ccccc34)[C@@](C(=O)OC)(c3cc4c(cc3OC)N(C)[C@H]3[C@@](O)(C(=O)OC)[C@H](OC(C)=O)[C@]5(CC)C=CCN6CC[C@]43[C@@H]65)C2)C1 [VINBLASTINE]
IC50 (HepG2): 4.6 µg/mL (≈ 5.67 µM)

COc1ccc(-n2cc(Cn3cc(C(=O)N4CCCCC4)c(=O)c4cc(F)c(N5CCCCC5)cc43)nn2)cc1
MIC (Bacillus subtilis): 18.8 µg/mL (≈ 34.4 µM)
MIC [1]: 18.8 µg/mL (≈ 34.4 µM)
MIC (Pseudomonas aeruginosa [2]): 18.8 µg/mL (≈ 34.4 µM)
MIC (Escherichia coli [3]): 18.8 µg/mL (≈ 34.4 µM)
MIC (Klebsiella pneumoniae [4]): 18.8 µg/mL (≈ 34.4 µM)
MIC (Staphylococcus aureus [5]): 18.8 µg/mL (≈ 34.4 µM)

O=C(OCc1cn(Cc2cccc(F)c2)nn1)c1cccc2c(=O)c3ccccc3[nH]c12
inhibition zone (IZ) (Bacillus spizizenii): 9.5 mm
inhibition zone (IZ) (Staphylococcus aureus [26]): 9.5 mm
inhibition zone (IZ) (Escherichia coli [27]): 9.5 mm
inhibition zone (IZ) (Proteus vulgaris [28]): 9.5 mm
inhibition zone (IZ) (Pseudomonas aeruginosa [29]): 9.5 mm

CC(O)C(=O)O.CCOc1ccc2nc3cc(N)ccc3c(N)c2c1
inhibition zone (IZ) (Bacillus spizizenii): 12 mm
inhibition zone (IZ) (Staphylococcus aureus [26]): 12 mm
inhibition zone (IZ) (Escherichia coli [27]): 12 mm
inhibition zone (IZ) (Proteus vulgaris [28]): 12 mm
inhibition zone (IZ) (Pseudomonas aeruginosa [29]): 12 mm

Source: ChEMBL document CHEMBL4699440, “Comprehensive review on the anti-bacterial activity of 1,2,3-triazole hybrids” (Eur J Med Chem, 2019)
